Here are results for 25 molecules from patent publication US20110028345A1, “METHODS TO CHARACTERIZE CELL REPROGRAMMING AND USES THEREOF” (CORNING INCORPORATED, priority 2009, published 2011).

Assay [1] relates to differentiated ReNcell cells (endogenous dopamine receptors). Put plainly: Epic RWG biosensor DMR assay on the neuronal cell system differentiated from ReNcell VM. Format: cell-based, human. Particulars: for DMR signal upon stimulation: differentiated ReNcell cells, PD128907 and A68930 16 micromolar, dopamine 128 micromolar (FIG. 7A-C); for receptor to which the DMR signal is attributed: differentiated cells, same doses as FIG. 7A-C. The method, then:
For cell assay on Epic, undifferentiated cells were typically seeded using ˜3×10^3 cells per well in 50 μl of the corresponding culture medium in the biosensor microplate freshly coated with laminin, and were cultured at 37° C. under air/5% CO2. […] The medium was replaced with fresh ReNcell NSC Maintenance Medium every 2-3 days for 10 days. The confluency for all cells at the time of assays was ˜95% to 100%.
(§1) For biosensor cellular assays, compound solutions were made by diluting the stored concentrated solutions with the HBSS (1× Hanks balanced salt solution, plus 20 mM Hepes, pH 7.1), and transferred into a 384 well polypropylene compound storage plate to prepare a compound source plate. […] Afterwards, a 2 to 10 min continuous recording was carried out to establish a baseline, and to ensure that the cells reached a steady state.

The test system of assay [2] is undifferentiated and differentiated ReN cells. The assay can be described thus: DMR marker panel profiling, differentiated versus undifferentiated ReN cells. The format is cell-based, human. Particulars: markers at 10 μM (dopamine and glucagons like peptide 128 μM); FIG. 9-11. The method, then:
The confluency for all cells at the time of assays was ˜95% to 100%.
as §1

For assay [3], the system named is A549 cell. The assay can be described thus: Modulation of marker-induced biosensor (DMR) responses in A549 cell. The format is cell-based. The source says: (§2) A “modulation profile” or like terms is the comparison between a secondary profile of the marker in the presence of a molecule and the primary profile of the marker in the absence of any molecule. The comparison can be by, for example, subtracting the primary profile from secondary profile or subtracting the secondary profile from the primary profile or normalizing the secondary profile against the primary profile.
(§3) A “molecule modulation index” or like terms is an index to display the ability of the molecule to modulate the biosensor output signals of the panels of markers acting on the panel of cells. The modulation index is generated by normalizing a specific biosensor output signal parameter of a response of a cell upon stimulation with a marker in the presence of a molecule against that in the absence of any molecule.
(§4) Alternatively, different scores can be given for a type of modulation but with different scales. For example, a positive modulation of 10%, 20%, 30%, 40%, 50%, 60%, 100%, 200%, etc, can be given a score of +1, +2, +3, +4, +5, +6, +10, +20, correspondingly. Conversely, for negative modulation, similar but in opposite score can be given. […] Thus, the score of HA1077 modulation index in coordination can be assigned as (0, 0.5, −0.6, 0, −2.3, 0.6, 0, −6.8, 0.4, −3.6, −0.5, −1.6). Once a molecular index is generated, the molecular index can be compared with a library of known modulators to determine the mode(s) of action of the molecule of interest. […] Beside its indicative power of a DMR index for pharmacology of a molecule, a molecule DMR index can also be used to distinguish the cellular background of different types of cells.

Assay [4] has as its system quiescent A431 cells. Put plainly: Modulation of marker-induced biosensor (DMR) responses in quiescent A431 cells. The format is cell-based.
From the text: as §2, §3, §4

Ends that are not written are not given here.

Take `NC[C@@H]1O[C@H](c2ccccc2)Cc2c1ccc(O)c2O` [A68930]: in assay [1], the “DMR signal upon stimulation” value is reported as “small but reproducible DMR signal” and the “receptor to which the DMR signal is attributed” value is given as “triggered a DMR signal specifically to the endogenous D1 receptor”.
Regarding lysophosphatidic acid, in assay [2], the “specificity of the marker DMR signal for the differentiation state” value (“specificity … for the differentiation state” below) is “specific to the undifferentiated cells”.
Still for that read-out and setting: in the case of “substance P (RPKPQQFFGLM; ends and bridges not checked; UniProt P20366 58-68, looked up) [NKA receptor agonist]” it was “specific to the undifferentiated cells”.
The same measure, in the same setting: in the case of Neuropeptide Y it was “specific to the differentiated ReN cells”.
On the same count and under the same terms, in the case of SFLLR-amide it was “specific to the differentiated ReN cells”.
As for “angiotensin II (DRVYIHPF; Angiotensin-2; UniProt P01019 25-32, looked up) [ATII receptor angiotensin II]”, the “specificity … for the differentiation state” value in assay [2] is listed as “specific to the undifferentiated cells”.
For `N#CC(C#N)=C(N)/C(C#N)=C/c1cc(O)c(O)c(O)c1` [tyrphostin 51], the “modulation of the biosensor response induced by PMA” value in assay [3] (marker PMA) is given as −6%. The “modulation of the biosensor response induced by SLIGKV-amide” value in assay [3] (marker SLIGKV-amide) was found to be 0%. Further, in assay [3] (marker forskolin), the “modulation of the biosensor response induced by forskolin” value is listed as −23%. Moreover, in assay [3] (marker histamine, early response), the “modulation of the histamine early response” value is listed as “+6%”. The “modulation of the histamine late response” value in assay [3] (marker histamine, late response) came out at 0%. Moreover, the “modulation of the biosensor response induced by pinacidil” value in assay [3] (marker pinacidil) came out at 0%. Also, in assay [3] (marker poly (I:C)), the “modulation of the biosensor response induced by poly (I:C)” value is “+5%”. Further, the “mode of action concluded from the biosensor index” value in assay [4] (EGFR inhibitor (EGF DMR in A431) and PDE4 inhibitor (epinephrine, histamine in A431; forskolin in A549)) was “displays polypharmacology”. Moreover, the “modulation of the EGF N-DMR” value in assay [4] (quiescent A431 cells, marker EGF, N-DMR) is given as −5%. For the same molecule, the “modulation of the EGF P-DMR” value in assay [4] (quiescent A431 cells, marker EGF, P-DMR) was −36%. Further, the “modulation of the biosensor response induced by epinephrine” value in assay [4] (quiescent A431 cells, marker epinephrine) was −68%. For the same molecule, the “modulation of the biosensor response induced by histamine” value in assay [4] (quiescent A431 cells, marker histamine) was −16%. The “modulation of the biosensor response induced by nicotinic acid” value in assay [4] (quiescent A431 cells, marker nicotinic acid) is given as “+4%”.
As to “neuropeptide B-23 (WYKPAAGHSSYSVGRAAGLLSGLR; ends and bridges not checked; UniProt Q8NG41 25-48, looked up) [GPR7 and 8 agonist]”, the “specificity … for the differentiation state” value in assay [2] was “specific to the differentiated ReN cells”.
On to “endothelin 1 (CSCSSLMDKECVYFCHLDIIW; ends and bridges not checked; cysteine pairing not given here; UniProt P05305 53-73, looked up) [endothelin receptor agonist]”, for which, in assay [2], the “specificity … for the differentiation state” value is “specific to the differentiated ReN cells”.
On the same count and under the same terms, in the case of platelet growth factor it was “non-specific to both the undifferentiated and differentiated ReN cells”; in that of `O=c1ccn([C@@H]2O[C@H](COP(=O)(O)OP(=O)(O)OP(=O)(O)O)[C@@H](O)[C@H]2O)c(=O)[nH]1` [UTP], “specific to the undifferentiated cells”; in that of “dynorphin A (YGGFLRRIRPKLKWDNQ; Dynorphin A(1-17); UniProt P01213 207-223, looked up) [opioid receptor agonist]”, “specific to the differentiated ReN cells”.
With `Nc1ncnc2c1ncn2[C@@H]1O[C@H](COP(=O)(O)OP(=O)(O)OP(=O)(O)O)[C@@H](O)[C@H]1O` [ATP], the “specificity … for the differentiation state” value in assay [2] is “specific to the differentiated ReN cells”.
As to `NCCCNCCCCNCCCN` [spermine], in assay [2], the “specificity … for the differentiation state” value is listed as “specific to the differentiated ReN cells”.
Still for that read-out and setting: to `Nc1ncnc2c1ncn2[C@@H]1O[C@H](COP(=O)(O)OP(=O)(O)O)[C@@H](O)[C@H]1O` [ADP] belongs “non-specific to both the undifferentiated and differentiated ReN cells”; to “vasoactive intestinal peptide (HSDAVFTDNYTRLRKQMAVKKYLNSILN; ends and bridges not checked; UniProt P01282 125-152, looked up) [VIP receptor agonist]”, “specific to the differentiated ReN cells”.
Still for that read-out and setting: to `NCCc1ccc(O)cc1` [tyramine] belongs “specific to the undifferentiated cells”.
On the same count and under the same terms, to `Nc1ncnc2c1ncn2[C@@H]1O[C@H](CO)[C@@H](O)[C@H]1O` [adenosine] belongs “specific to the differentiated ReN cells”.
Regarding `CCCN1CCO[C@@H]2c3cc(O)ccc3OC[C@H]21` [PD128907], in assay [1], the “DMR signal upon stimulation” value was “small but reproducible DMR signal” and the “receptor to which the DMR signal is attributed” value is “activated another endogenous dopamine receptor (possibly D2 receptor)”.
As for `NCCCC(=O)O` [GABA], the “specificity … for the differentiation state” value in assay [2] is “non-specific to both the undifferentiated and differentiated ReN cells”.
For “alpha-melanocyte-stimulating hormone (SYSMEHFRWGKPV; ends and bridges not checked; UniProt P01189 138-150, looked up) [MCH receptor agonist]”, the “specificity … for the differentiation state” value in assay [2] was “non-specific to both the undifferentiated and differentiated ReN cells”.
“orexin A (QPLPDCCRQKTCSCRLYELLHGAGNHAAGILTL; ends and bridges not checked; cysteine pairing not given here; UniProt O43612 34-66, looked up) [orexin receptor agonist]”: the “specificity … for the differentiation state” value in assay [2] was “specific to the differentiated ReN cells”.
The same measure, in the same setting: to apelin belongs “non-specific to both the undifferentiated and differentiated ReN cells”.
Still for that read-out and setting: in the case of glucagons like peptide it was “specific to the undifferentiated cells”; in that of `O=c1ccn([C@@H]2O[C@H](COP(=O)(O)OP(=O)(O)O)[C@@H](O)[C@H]2O)c(=O)[nH]1` [UDP], “specific to the differentiated ReN cells”.
